Measurements reported in patent publication US20260021147A1, “COMPOSITIONS AND METHODS FOR TREATING INFLAMMATORY DISEASE” (The Regents of the University of Michigan, priority 2022, published 2026).
“Also recorded” adds a separate entry of the source.

Legend:
[1] = tested on: Bacteroides thetaiotaomicron (MDA-JAX BT001); experiment: MIC of meropenem with MIC test strips; type: cell-based; conditions: mouse-derived BT
Description: Mouse-derived BT (MDA-JAX BT001), Enterococcus faecalis (MDA-JAX EF001) and Clostridium disporicum (MDA-JAX CD001), Clostridium saudiense (MDA-JAX CS001), and Lachnospiraceae unclassified (MDA-JAX LS001) were isolated and cultured from mouse stool samples suspended in 1 ml of chilled 20% anaerobic glycerol in a Whitley anaerobic chamber (10% H2, 5% CO2 and 85% N2). Human-derived BT (ATCC 29148) was purchased from ATCC. Bacterial number was quantified using a Nexcelom Cellometer cell counter with SYTO™ BC dye and propidium iodide. For measuring MICs against meropenem, bacteria were cultured on BYE plates including 5% sterilized rumen fluid (Fisher Scientific) with MIC test strips (Liofilchem™ MTS™ Meropenem [MRP] 0.016-256 μg/mL, Fisher Scientific). Bacterial growth experiments were performed in a bacterial liquid media, BYEM10, composed of a hybrid of BHI and M10 supplemented with yeast extract (Table 4). Bacteria were cultured up to 48 hours at a starting concentration of 1×10^6 bacteria/ml in BYEM10 broth (pH 7.2) with and without 5 mg/ml of porcine gastric mucin (M1778, Sigma-Aldrich) with or without 0.5 mg/ml of D-(+)-xylose (X3877), D-(+)-mannose (M8574, Sigma-Aldrich) or D-(+)-glucose (G8270). Optical densities (OD600 nm) of bacterial cultures were measured with a BioTek EPOCH 2 plate reader.

[2] = Carbohydrates analysis of mouse feces by IC-MS; type: in vivo; conditions: allogeneic mice, day 18
Description: To determine the relative abundance of carbohydrates in mouse feces samples, extracts were prepared and analyzed by ultra-HRMS. Fecal pellets were homogenized with a Precellys Tissue Homogenizer. Metabolites were extracted using 1 mL ice-cold 80/20 (v/v) methanol/water. Extracts were centrifuged at 17,000 g for 5 min at 4° C., and supernatants were transferred to clean tubes, followed by evaporation to dryness under nitrogen. Dried extracts were reconstituted in deionized water, and 5 μL was injected for analysis by IC-MS. IC mobile phase A (MPA; weak) was water, and mobile phase B (MPB; strong) was water containing 100 mM KOH. A Thermo Scientific Dionex ICS-5000+ system included a Thermo CarboPac PA-20-Fast column (4 μm particle size, 100×2 mm) with column compartment kept at 30° C. The autosampler tray was chilled to 4° C. The mobile phase flow rate was 200 μL/min, and the gradient elution program was: 0-0.5 min, 1% MPB; 0.5-10 min, 1-5% MPB; 10-15 min, 5-95% MPB; 15-20 min, 95% MPB; 20.5-25, 95-1% MPB. The total run time was 25 min. To assist the desolvation for better sensitivity, methanol was delivered by an external pump and combined with the eluent via a low dead volume mixing tee. Data were acquired using a Thermo Orbitrap Fusion Tribrid Mass Spectrometer under ESI negative ionization mode at a resolution of 240,000. […]

allo-HSCT patients = experiment: Retrospective study of 295 allo-HSCT patients: acute GvHD by antibiotic exposure; type: in vivo, human; conditions: until day 100; antibiotic exposure days −10 to 30
Description: 295 patients with acute myeloid leukemia (AML) or myelodysplastic syndrome (MDS) underwent allogeneic hematopoietic stem cell transplantation (allo-HSCT) with fludarabine plus busulfan as conditioning therapy and tacrolimus and methotrexate as GvHD prophylaxis from 2011 and 2016 at MD Anderson Cancer Center and were analyzed retrospectively. Patients were classified by antibiotic exposures, including those who received neither cefepime nor meropenem, those who received cefepime alone, those who received meropenem alone and those who received both cefepime and meropenem from day −10 to day after allo-HSCT. Acute GvHD was diagnosed by clinical and/or pathological findings, and graded according to standard criteria (Przepiorka et al., 1995).

intestinal microbiota = experiment: 16S rRNA sequencing of fecal and mucosal microbiome in mice; type: in vivo
Description: Fecal samples which were collected from patients and mice and colonic mucosal samples, which were collected from mice were weighed before DNA isolation. […] The quality and quantity of the barcoded amplicons were assessed on an Agilent 4200 TapeStation system (Agilent) and Qubit Fluorometer (Thermo Fisher Scientific), and libraries were prepared after pooling at equimolar ratios. The final libraries were purified using QIAquick gel extraction kit (28706X4, Qiagen) and sequenced with a 2×250 base pair paired-end protocol on the Illumina MiSeq platform.
For differential abundance analysis, abundances of sequences belonging to taxonomical groups were included for analysis using the Mann-Whitney U test and adjusted for multiple comparisons using the method of Benjamini-Hochberg. Paired samples were analyzed using the Wilcoxon signed rank test with adjustment for multiple comparisons.

[3] = Meropenem concentration in stool during drinking water administration; type: in vivo; conditions: 48 hours after starting meropenem treatment, normal SPF mice
Description: (§1) In a murine model with a mucin-deficient mutate strain of BT, piperacillin/tazobactam was given at a concentration of 3.2 g/L in combination with vancomycin and metronidazole dosed 1.5 mg daily by oral gavage from days −16 to −12 relative to transplant.
To further explore the relationship between meropenem and intestinal GvHD, the effects of meropenem on GvHD was examined in a mouse model of allo-HSCT. A method of administering meropenem to mice that mimicked the effects of meropenem on the intestinal microbiome of patients was developed. Meropenem concentrations in the cecal lumen of mice were quantified 4, 8, 24, 48 and 96 hours after subcutaneous injection. […] Drinking water was then evaluated as a means of continuously administering meropenem to mice, using bacterial density quantified by 16S ribosomal RNA (16S rRNA) gene quantitative PCR (qPCR) to gauge reductions of the intestinal microbiota.

[4] = tested on: allogeneic mice (B6D2F1 recipients of B6 donor cells); experiment: Murine GvHD model (allo-HSCT): survival and GvHD histology; type: in vivo
Description: as §1
D-(+)-xylose (X3877, Sigma-Aldrich) or D-(+)-glucose (G8270, Sigma-Aldrich) was dissolved in phosphate buffer pH 8.0 with meropenem or in water without meropenem and given at a concentration of 0.5% from days 13 to 28 after allo-HSCT.
Mice were transplanted as previously described (Hayase et al., 2017).
Pathology scores were quantified by a blinded pathologist. […] Sections were imaged using an Aperio AT2.

[5] = Pharmacokinetics of meropenem in cecal contents by LC-MS; type: in vivo, C57BL/6 mice; conditions: 10 mg subcutaneous injection; 4, 8, 24, 48 and 96 hours
Description: C57BL/6 mice were treated with 10 mg of meropenem by subcutaneously injection. Cecal contents were collected prior to, 4, 8, 24, 48, and 96 hours after meropenem injection. To determine the relative abundance of meropenem in mouse cecum samples, extracts were prepared and analyzed with a Thermo Scientific TSQ Quantiva triple quadruple mass spectrometer coupled with a Dionex UltiMate 3000 HPLC system. Approximately 600 mgs of mouse cecal contents were homogenized with a Precellys Tissue Homogenizer. Metabolites were extracted using 100% acetonitrile. The tissue lysates were vortexed, centrifuged at 17,000 g for 5 min 5 at 4° C., and organic layers were transferred to clean tubes, followed by evaporation to dryness under nitrogen. Dried extracts were reconstituted in 50/50 (v/v) water/Acetonitrile, and 5 μL was injected for analysis by LC-MS. The mobile phase A is 100% water and mobile phase B is 0.1% Formic Acid in acetonitrile. Separation of meropenem was achieved on an Agilent SB-C18, 1.8 μm, 100×3 mm column. The flow rate was 250 μL/min at 35° C., and the gradient elution program was: 0-1 min, 5% MPB; 1-5 min, 5-50% MPB; 5-6 min, 50-95% MPB; 6-10 min, 95% MPB; 10-10.1 min, 95-5% MPB. The total run time was 15 min. The mass spectrometer was operated in the MRM positive ion electrospray mode with the transition m/z 384.1->68.0. […]

MLNs = experiment: Microbiologic analysis of bacterial translocation to mesenteric lymph nodes; type: in vivo; conditions: allogeneic mice, day 18
Description: Mesenteric lymph nodes (MLNs) were harvested from mice and homogenized in PBS and cultured anaerobically on BHI plates containing yeast extract and 5% sterilized rumen fluid (Fisher Scientific) and Columbia blood agar plates (BD) for 4 days at 37° C. Colony-forming units (CFUs) were counted and adjusted per organ. Bacteria were identified by MALDI Biotyper.

**Q.** For `C[C@@H](O)[C@H]1C(=O)N2C(C(=O)O)=C(S[C@@H]3CN[C@H](C(=O)N(C)C)C3)[C@H](C)[C@H]12` [meropenem], which MIC [1] is on record?
**A.** 4 µg/mL

**Q.** And the “levels of luminal monosaccharides in the colon” value [2]?
**A.** significantly lower concentrations of arabinose and xylose; also recorded: decreased levels of xylose

**Q.** And the “incidence of acute intestinal GvHD” value (allo-HSCT patients)?
**A.** increased

**Q.** And the “abundances of Bacteroides and several other genera” value (intestinal microbiota; allogeneic mice, day 21)?
**A.** significantly higher abundances

**Q.** And the “relative abundance of Clostridia” value (intestinal microbiota; meropenem-treated allogeneic mice, from day 7 until 6 days after stopping)?
**A.** depleted; also recorded: significantly decreased

**Q.** What about the “compositional differences between luminal and mucosal samples” value (intestinal microbiota; treated allogeneic mice, PERMANOVA testing) of the same compound?
**A.** loss of this distinction

**Q.** And the “meropenem concentration in stool” value [3]?
**A.** 0.11 ± 0.07 µg/g

**Q.** And the “GvHD histological scores in the colon” value ([4]; meropenem days 3 to 15, day 18, vs control allogeneic mice)?
**A.** significantly higher GvHD histological scores in the colon

**Q.** What about the overall survival ([4]; meropenem in drinking water days 3 to 15, vs control allogeneic mice) of the same compound?
**A.** significantly worsened survival

**Q.** And the “meropenem concentrations in the cecal lumen” value [5]?
**A.** increase in meropenem concentrations in the cecum at 4 hours after injection, which rapidly declined afterwards

**Q.** What about the “bacterial loads in MLNs” value (MLNs) of the same compound?
**A.** Higher bacterial loads
